In patent US20240109917A1 (ACTELION PHARMACEUTICALS LTD, priority 2020, published 2024):

target: VEGFR2, unphosphorylated (Homo sapiens (Human), UniProt P35968); assay: VEGFR ADP GLO Assay; format: biochemical
Sequence (P35968 20-1356): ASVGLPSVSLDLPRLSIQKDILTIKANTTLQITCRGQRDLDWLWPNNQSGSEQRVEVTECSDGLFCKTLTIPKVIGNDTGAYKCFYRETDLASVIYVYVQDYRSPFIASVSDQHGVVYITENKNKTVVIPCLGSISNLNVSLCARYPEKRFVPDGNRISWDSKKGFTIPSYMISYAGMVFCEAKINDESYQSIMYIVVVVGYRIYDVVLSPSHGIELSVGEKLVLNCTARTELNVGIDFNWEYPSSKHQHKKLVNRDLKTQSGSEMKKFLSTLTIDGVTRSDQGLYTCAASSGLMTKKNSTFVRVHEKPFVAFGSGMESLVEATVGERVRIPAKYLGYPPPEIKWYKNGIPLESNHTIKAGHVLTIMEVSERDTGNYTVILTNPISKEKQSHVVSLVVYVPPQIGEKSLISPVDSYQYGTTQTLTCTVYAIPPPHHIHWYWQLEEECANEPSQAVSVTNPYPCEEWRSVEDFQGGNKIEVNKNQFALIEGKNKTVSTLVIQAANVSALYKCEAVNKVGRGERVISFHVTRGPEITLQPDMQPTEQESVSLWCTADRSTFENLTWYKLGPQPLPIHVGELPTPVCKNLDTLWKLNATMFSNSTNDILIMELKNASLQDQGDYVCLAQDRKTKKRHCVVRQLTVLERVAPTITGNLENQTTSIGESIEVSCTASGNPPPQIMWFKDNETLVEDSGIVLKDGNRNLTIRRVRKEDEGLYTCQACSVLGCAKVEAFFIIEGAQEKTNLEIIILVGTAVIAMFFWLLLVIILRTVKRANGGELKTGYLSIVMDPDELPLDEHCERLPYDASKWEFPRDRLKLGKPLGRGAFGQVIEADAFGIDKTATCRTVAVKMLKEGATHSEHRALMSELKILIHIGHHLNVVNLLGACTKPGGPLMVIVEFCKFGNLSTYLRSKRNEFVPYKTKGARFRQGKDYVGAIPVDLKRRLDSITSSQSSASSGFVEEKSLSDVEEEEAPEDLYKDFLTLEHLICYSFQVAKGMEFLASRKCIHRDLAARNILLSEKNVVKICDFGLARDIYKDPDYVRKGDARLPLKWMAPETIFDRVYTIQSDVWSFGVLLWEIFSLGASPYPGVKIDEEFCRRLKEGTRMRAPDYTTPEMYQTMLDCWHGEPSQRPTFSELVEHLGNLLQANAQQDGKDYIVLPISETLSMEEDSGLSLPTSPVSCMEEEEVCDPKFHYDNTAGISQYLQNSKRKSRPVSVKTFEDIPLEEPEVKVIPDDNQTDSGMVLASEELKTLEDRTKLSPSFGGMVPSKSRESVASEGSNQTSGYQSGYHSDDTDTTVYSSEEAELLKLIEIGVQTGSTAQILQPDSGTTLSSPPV

`Cc1ncc(C(=O)NCC2CCCN2C)cc1NC(=O)c1cnn2cc(-c3cnn4c3OCCC4)sc12` (stereo not shown) [Example 470, 2-(6,7-dihydro-5H-pyrazolo[5,1-b][1,3]oxazin-3-yl)-N-(2-methyl-5-(((1-methylpyrrolidin-2-yl)methyl)carbamoyl)pyridin-3-yl)pyrazolo[5,1-b]thiazole-7-carboxamide] and `Cc1ncc(C(=O)NCCN2CC(C)(C)C2)cc1NC(=O)c1cnn2cc(-c3cnn4c3OCCC4)sc12` [Example 479, 2-(6,7-dihydro-5H-pyrazolo[5,1-b][1,3]oxazin-3-yl)-N-(5-((2-(3,3-dimethylazetidin-1-yl)ethyl)carbamoyl)-2-methylpyridin-3-yl)pyrazolo[5,1-b]thiazole-7-carboxamide] cannot be ordered by IC50: > 7.5 µM for the first, > 7.5 µM for the second.

`Cc1ncc(NC(=O)CNC2CCC2)cc1NC(=O)c1cnn2cc(-c3cnn4c3CCC4)sc12` [Example 471, N-(5-(2-(cyclobutylamino)acetamido)-2-methylpyridin-3-yl)-2-(5,6-dihydro-4H-pyrrolo[1,2-b]pyrazol-3-yl)pyrazolo[5,1-b]thiazole-7-carboxamide] and `Cc1ncc(NC(=O)CN2CCC[C@@H]2C)cc1NC(=O)c1cnn2cc(-c3cnn4c3COCC4)sc12` [Example 473, (S)-2-(6,7-dihydro-4H-pyrazolo[5,1-c][1,4]oxazin-3-yl)-N-(2-methyl-5-(2-(2-methylpyrrolidin-1-yl)acetamido)pyridin-3-yl)pyrazolo[5,1-b]thiazole-7-carboxamide] cannot be ordered by IC50: > 7.5 µM for the first, > 7.5 µM for the second.

Compared with `Cc1ncc(C(=O)NCCN2CCCC23CCC3)cc1NC(=O)c1cnn2cc(-c3cnn4c3COCC4)sc12` [Example 472, N-(5-((2-(5-azaspiro[3.4]octan-5-yl)ethyl)carbamoyl)-2-methylpyridin-3-yl)-2-(6,7-dihydro-4H-pyrazolo[5,1-c][1,4]oxazin-3-yl)pyrazolo[5,1-b]thiazole-7-carboxamide], `Cc1ncc(C(=O)NCCN2CCCC23CCC3)cc1NC(=O)c1cnn2cc(-c3cnn4c3OCCC4)sc12` [Example 478, N-(5-((2-(5-azaspiro[3.4]octan-5-yl)ethyl)carbamoyl)-2-methylpyridin-3-yl)-2-(6,7-dihydro-5H-pyrazolo[5,1-b][1,3]oxazin-3-yl)pyrazolo[5,1-b]thiazole-7-carboxamide] is lower in IC50: > 7.5 µM for the first, 2.56 µM for the second. The second is the more potent here.

`Cc1ncc(NC(=O)CN2CCC3(CC3)C2)cc1NC(=O)c1cnn2cc(-c3cnn4c3COCC4)sc12` [Example 474, N-(5-(2-(5-azaspiro[2.4]heptan-5-yl)acetamido)-2-methylpyridin-3-yl)-2-(6,7-dihydro-4H-pyrazolo[5,1-c][1,4]oxazin-3-yl)pyrazolo[5,1-b]thiazole-7-carboxamide] and `Cc1ncc(NC(=O)CN2CCC23CCC3)cc1NC(=O)c1cnn2cc(-c3cnn4c3COCC4)sc12` [Example 475, N-(5-(2-(1-azaspiro[3.3]heptan-1-yl)acetamido)-2-methylpyridin-3-yl)-2-(6,7-dihydro-4H-pyrazolo[5,1-c][1,4]oxazin-3-yl)pyrazolo[5,1-b]thiazole-7-carboxamide] cannot be ordered by IC50: > 7.5 µM for the first, > 7.5 µM for the second.

`Cc1ncc(NC(=O)CN2CC(C)(C)C2)cc1NC(=O)c1cnn2cc(-c3cnn4c3COCC4)sc12` [Example 476, 2-(6,7-dihydro-4H-pyrazolo[5,1-c][1,4]oxazin-3-yl)-N-(5-(2-(3,3-dimethylazetidin-1-yl)acetamido)-2-methylpyridin-3-yl)pyrazolo[5,1-b]thiazole-7-carboxamide] and `Cc1ncc(C(=O)NCCN2CC(C)(C)C2)cc1NC(=O)c1cnn2cc(-c3cnn4c3CCC4)sc12` [Example 482, 2-(5,6-dihydro-4H-pyrrolo[1,2-b]pyrazol-3-yl)-N-(5-((2-(3,3-dimethylazetidin-1-yl)ethyl)carbamoyl)-2-methylpyridin-3-yl)pyrazolo[5,1-b]thiazole-7-carboxamide] cannot be ordered by IC50: > 7.5 µM for the first, > 7.5 µM for the second.

`Cc1ncc(C(=O)NCCN2CC3CCC2CC3)cc1NC(=O)c1cnn2cc(-c3cnn4c3OCCC4)sc12` [Example 477, N-(5-((2-(2-azabicyclo[2.2.2]octan-2-yl)ethyl)carbamoyl)-2-methylpyridin-3-yl)-2-(6,7-dihydro-5H-pyrazolo[5,1-b][1,3]oxazin-3-yl)pyrazolo[5,1-b]thiazole-7-carboxamide] and `Cc1ncc(C(=O)NCCN2CC3CCC2CC3)cc1NC(=O)c1cnn2cc(-c3cnn4c3CCC4)sc12` [Example 480, N-(5-((2-(2-azabicyclo[2.2.2]octan-2-yl)ethyl)carbamoyl)-2-methylpyridin-3-yl)-2-(5,6-dihydro-4H-pyrrolo[1,2-b]pyrazol-3-yl)pyrazolo[5,1-b]thiazole-7-carboxamide] cannot be ordered by IC50: > 7.5 µM for the first, > 7.5 µM for the second.

In the case of `Cc1ncc(C(=O)NCCN2CCCC2(C)C)cc1NC(=O)c1cnn2cc(-c3cnn4c3CCC4)sc12` [Example 481, 2-(5,6-dihydro-4H-pyrrolo[1,2-b]pyrazol-3-yl)-N-(5-((2-(2,2-dimethylpyrrolidin-1-yl)ethyl)carbamoyl)-2-methylpyridin-3-yl)pyrazolo[5,1-b]thiazole-7-carboxamide], the IC50 is reported as > 7.5 µM.
